Data taken from patent publication US11872238B2, “Nutritional composition for use to enhance attention and/or reduce impulsivity” (SOCIETE DES PRODUITS NESTLE S.A., priority 2017, dated 2024).

Key:
[1] = test system: mouse pups; test: Neurodevelopmental milestones: onset and strength of reflexes on the Fox scale; type: in vivo; settings: mouse pups receiving milk absent of 6′-SL, compared with pups receiving milk comprising 6′-SL
Protocol: (§1) This effects were observed on a background of no changes in term of neurodevelopment evaluated by the onset and strength of reflexes using the Fox scale.
On PND3, PND7, and PND12 mice were evaluated for the onset of neurodevelopmental milestones through the administration of Fox scales. The latter consist of a series of rapid tests to evaluate the maturity of a series of reflexes: righting (capability of mice to turn over with all four paws on the ground when placed on its back); grasping (the mouse is placed on a wire-mesh grid which is progressively tilted until the subject harmlessly falls on a soft surface, positioned 2 cm below the grid); cliff aversion (which measures the capability of mice to withdraw from a perceived visual cliff). Furthermore, pups' bodyweight and body length were constantly monitored throughout development.

[2] = test system: mouse pups; test: Cross-fostering study of WT and St6Gal1 KO (6SL KO) mouse pups reared to WT or KO dams, with cognitive tests (T-maze, pre-pulse inhibition, Barnes maze, attentional set-shifting) in adulthood; type: in vivo; settings: mouse pups receiving milk absent of 6′-SL, compared with pups receiving milk comprising 6′-SL; evaluated as adults
Excerpt: as §1
Adult wild-type (WT) B6.129 and heterozygous (HZ) B6.129-St6gal1^tm2Jxm breeding pairs (four males and four females and three males and four females, respectively) were purchased from a commercial breeder (The Jackson Laboratory). Upon arrival, same-sex mice were housed in same-sex groups of 2-3 in type-1 polycarbonate cages (33.0×13.0×14.0 cm) equipped with sawdust bedding, an enrichment bag (Mucedola, Settimo Milanese, Italy), metal top and ad libitum water and food pellets (Mucedola, Settimo Milanese, Italy). Mice were maintained on a reversed 12-h-light-dark cycle (light on at 7:00 PM) in an air-conditioned room (temperature 21±1° C. and relative humidity 60±10%). Two weeks after arrival, breeding triads (one male, two females) were formed. After two weeks of mating, male mice were removed and females were housed individually in standard type-1 cages. Females were checked daily for delivery and the day in which they gave birth was designated as postnatal day (PND) 0. Apart from cage cleaning once a week, dams and their offspring were kept undisturbed until weaning (on PND 25). […]
The aforementioned subjects have then been evaluated for neurodevelopmental milestones, cognitive capabilities (inc. attention) as outlined in figure two. […]

CC(=O)N[C@H]1[C@H]([C@H](O)[C@H](O)CO)O[C@@](OC[C@H]2O[C@@H](O[C@H]3[C@H](O)[C@@H](O)C(O)O[C@@H]3CO)[C@H](O)[C@@H](O)[C@H]2O)(C(=O)O)C[C@@H]1O (stereo partly drawn) [6′-sialyllactose, (6R)-5-Acetamido-3,5-dideoxy-6-[(1R,2R)-1,2,3-trihydroxypropyl]-β-L-threo-hex-2-ulopyranonosyl-(2->6)-β-D-galactopyranosyl-(1->4)-D-glucopyranose]
neurodevelopment evaluated by the onset and strength of reflexes using the Fox scale [1]: no changes
attention [2]: decreased attention
impulsivity [2]: increased impulsivity
